Measured values reported in patent publication US11566007B2, “Ras inhibitors” (Revolution Medicines, Inc., priority 2019, dated 2023).

Legend:
Assay type in all cases: biochemical
[1] = biological target: KRAS G12V (Homo sapiens (Human), UniProt P01116+P62937, G12V); assay: Ras-Raf (BRAF RBD) disruption / FRET / MOA assay, KRAS G12V; settings: read-out: IC50* KRAS G12V FRET data
Method in brief: (§1)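 Ras:RAF disruption was scored as a fall in TR-FRET ratio relative to DMSO. Compound ranged in 3-fold steps over 10 points from 30 μM final; incubation ran 3 h at 25° C, detection antibodies a further 1.5 h. Reported as IC50.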

[2] = biological target: NRAS Q61K (Homo sapiens (Human), UniProt P01111+P62937, Q61K); assay: Ras-Raf (BRAF RBD) disruption / FRET / MOA assay, NRAS Q61K; settings: NRAS Q61K; Ras-Raf disruption/FRET/MOA assay; read-out: IC50* NRAS Q61K FRET data
Method in brief: (§2)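 TR-FRET disruption of nucleotide-loaded Ras binding to BRAF RBD via compound-driven ternary complex with cyclophilin A. Compound as 10-point 3-fold series from 30 μM final, 3 h at 25° C, then anti-His Eu-W1024 (10 nM) and anti-GST allophycocyanin (50 nM) for 1.5 h. IC50 from decreased FRET ratio versus DMSO.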

[3] = biological target: KRAS G13D (Homo sapiens (Human), UniProt P01116+P62937, G13D); assay: Ras-Raf (BRAF RBD) disruption / FRET / MOA assay, KRAS G13D; settings: read-out: IC50* KRAS G13D FRET data
Method in brief: as §1

[4] = biological target: KRAS Q61H (Homo sapiens (Human), UniProt P01116+P62937, Q61H); assay: Ras-Raf (BRAF RBD) disruption / FRET / MOA assay, KRAS Q61H; settings: Ras-Raf disruption/FRET/MOA assay; class symbols; read-out: KRAS Q61H FRET data IC50
Method in brief: as §2

[5] = biological target: NRAS G12C (Homo sapiens (Human), UniProt P01111+P62937, G12C); assay: Ras-Raf (BRAF RBD) disruption / FRET / MOA assay, NRAS G12C; settings: read-out: IC50* NRAS G12C FRET data
Method in brief: as §1

[6] = biological target: NRAS WT (Homo sapiens (Human), UniProt P01111+P62937); assay: Ras-Raf (BRAF RBD) disruption / FRET / MOA assay, NRAS WT; settings: read-out: IC50* NRAS WT FRET data
Method in brief: as §2

[7] = biological target: K-Ras G12C (Homo sapiens (Human), UniProt P01116+P62937, G12C); assay: Ras-Raf (BRAF RBD) disruption / FRET / MOA assay, KRAS G12C; settings: KRAS G12C; Ras-Raf disruption/FRET/MOA assay; read-out: IC50* KRAS G12C FRET data
Method in brief: as §1

[8] = biological target: NRAS Q61R (Homo sapiens (Human), UniProt P01111+P62937, Q61R); assay: Ras-Raf (BRAF RBD) disruption / FRET / MOA assay, NRAS Q61R; settings: NRAS Q61R; Ras-Raf disruption/FRET/MOA assay; read-out: IC50* NRAS Q61R FRET data
Method in brief: as §2

[9] = biological target: K-Ras G13C (Homo sapiens (Human), UniProt P01116+P62937, G13C); assay: Ras-Raf (BRAF RBD) disruption / FRET / MOA assay, KRAS G13C; settings: KRAS G13C; Ras-Raf disruption/FRET/MOA assay; read-out: IC50* KRAS G13C FRET data
Method in brief: as §1

Sequence of NRAS Q61K (P01111 whole entry Q61K): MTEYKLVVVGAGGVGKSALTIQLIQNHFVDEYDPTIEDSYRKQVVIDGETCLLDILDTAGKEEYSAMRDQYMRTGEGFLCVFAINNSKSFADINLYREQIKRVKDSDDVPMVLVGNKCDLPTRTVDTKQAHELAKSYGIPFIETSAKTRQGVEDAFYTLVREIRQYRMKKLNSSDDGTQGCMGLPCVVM
Sequence of NRAS Q61K (P62937 whole entry): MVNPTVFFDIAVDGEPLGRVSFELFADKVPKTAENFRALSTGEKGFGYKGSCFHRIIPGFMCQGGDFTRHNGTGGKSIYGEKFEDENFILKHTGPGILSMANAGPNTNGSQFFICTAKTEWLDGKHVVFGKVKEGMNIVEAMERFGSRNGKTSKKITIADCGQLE
Sequence of KRAS Q61H (P01116-2 other isoform, or with tags, fused parts or gaps Q61H): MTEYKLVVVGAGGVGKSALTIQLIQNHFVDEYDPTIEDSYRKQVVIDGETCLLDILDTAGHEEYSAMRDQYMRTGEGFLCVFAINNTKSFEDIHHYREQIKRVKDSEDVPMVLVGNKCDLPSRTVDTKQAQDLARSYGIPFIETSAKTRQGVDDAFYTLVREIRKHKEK
Sequence of KRAS Q61H (P62937 whole entry): as the sequence (P62937 whole entry) above
Sequence of KRAS G12V (P01116-2 other isoform, or with tags, fused parts or gaps G12V): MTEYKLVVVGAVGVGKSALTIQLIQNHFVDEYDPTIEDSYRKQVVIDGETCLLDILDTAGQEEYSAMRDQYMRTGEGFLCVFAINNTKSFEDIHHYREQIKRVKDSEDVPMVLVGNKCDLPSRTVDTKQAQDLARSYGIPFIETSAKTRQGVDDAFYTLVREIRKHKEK
Sequence of KRAS G12V (P62937 whole entry): as the sequence (P62937 whole entry) above
Sequence of K-Ras G13C (P01116-2 other isoform, or with tags, fused parts or gaps G13C): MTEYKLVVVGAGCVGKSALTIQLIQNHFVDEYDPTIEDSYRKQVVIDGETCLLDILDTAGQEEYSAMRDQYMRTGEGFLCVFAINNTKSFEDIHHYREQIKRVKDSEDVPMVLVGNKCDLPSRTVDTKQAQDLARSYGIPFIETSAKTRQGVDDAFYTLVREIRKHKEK
Sequence of K-Ras G13C (P62937 whole entry): as the sequence (P62937 whole entry) above
Sequence of KRAS G13D (P01116-2 other isoform, or with tags, fused parts or gaps G13D): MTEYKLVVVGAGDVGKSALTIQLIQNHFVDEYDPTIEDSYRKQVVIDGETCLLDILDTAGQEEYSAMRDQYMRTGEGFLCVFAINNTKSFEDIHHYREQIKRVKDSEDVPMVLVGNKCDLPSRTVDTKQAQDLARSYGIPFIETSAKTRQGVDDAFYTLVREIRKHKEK
Sequence of KRAS G13D (P62937 whole entry): as the sequence (P62937 whole entry) above
Sequence of NRAS Q61R (P01111 whole entry Q61R): as the sequence (P01111 whole entry Q61K) above, with K61R counted along it
Sequence of NRAS Q61R (P62937 whole entry): as the sequence (P62937 whole entry) above
Sequence of NRAS G12C (P01111 whole entry G12C): as the sequence (P01111 whole entry Q61K) above, with G12C, K61Q counted along it
Sequence of NRAS G12C (P62937 whole entry): as the sequence (P62937 whole entry) above
Sequence of K-Ras G12C (P01116-2 other isoform, or with tags, fused parts or gaps G12C): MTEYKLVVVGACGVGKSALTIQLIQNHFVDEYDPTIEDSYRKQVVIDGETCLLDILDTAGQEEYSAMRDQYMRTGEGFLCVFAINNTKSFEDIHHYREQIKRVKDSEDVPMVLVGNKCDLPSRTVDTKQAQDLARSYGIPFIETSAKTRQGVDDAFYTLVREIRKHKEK
Sequence of K-Ras G12C (P62937 whole entry): as the sequence (P62937 whole entry) above
Sequence of NRAS WT (P01111 whole entry): as the sequence (P01111 whole entry Q61K) above, with K61Q counted along it
Sequence of NRAS WT (P62937 whole entry): as the sequence (P62937 whole entry) above

| SMILES | IC50 [1] [nM] | IC50 [2] [nM] | IC50 [3] [nM] | IC50 [4] [nM] | IC50 [5] [nM] | IC50 [6] [nM] | IC50 [7] [nM] | IC50 [8] [nM] | IC50 [9] [nM] |
| --- | --- | --- | --- | --- | --- | --- | --- | --- | --- |
| C=CC(=O)N1CCN(C(=O)N(C)[C@H](C(=O)N[C@H]2Cc3nc(cs3)-c3ccc4c(c3)c(c(-c3cccnc3[C@H](C)OC)n4CC(F)(F)F)CC(C)(C)COC(=O)[C@@H]3CCCN(N3)C2=O)C(C)C)CC12CC2 (atropisomer, axis not shown) [Example A679] | 10 to 100 | 10 to 100 | 100 to 1000 | 10 to 100 | 10 to 100 | 10 to 100 | 10 to 100 | 10 to 100 | 10 to 100 |
| C=C(OC)C(=O)N1CC2(CCN(C(=O)N(C)[C@H](C(=O)N[C@H]3Cc4nc(cs4)-c4ccc5c(c4)c(c(-c4cccnc4[C@H](C)OC)n5CC)CC(C)(C)COC(=O)[C@@H]4CCCN(N4)C3=O)C(C)C)CC2)C1 (atropisomer, axis not shown) [Example A681] | 100 to 1000 | 10 to 100 | 100 to 1000 | 10 to 100 | 10 to 100 | 100 to 1000 | 10 to 100 | 100 to 1000 | 100 to 1000 |
| C=C(F)C(=O)N1CC2(CCN(C(=O)N(C)[C@H](C(=O)N[C@H]3Cc4nc(cs4)-c4ccc5c(c4)c(c(-c4cccnc4[C@H](C)OC)n5CC)CC(C)(C)COC(=O)[C@@H]4CCCN(N4)C3=O)C(C)C)CC2)C1 (atropisomer, axis not shown) [Example A682] | 100 to 1000 | 10 to 100 | 100 to 1000 | 10 to 100 | 10 to 100 | 100 to 1000 | 10 to 100 | 100 to 1000 | 100 to 1000 |
| C=CC(=O)N1CC2(CCN2C(=O)N(C)[C@H](C(=O)N[C@H]2Cc3cccc(c3)-c3ccc4c(c3)c(c(-c3cccnc3[C@H](C)OC)n4CC)CC(C)(C)COC(=O)[C@@H]3CCCN(N3)C2=O)C(C)C)C1 (atropisomer, axis not shown) [Example A684] | 100 to 1000 | 100 to 1000 | 100 to 1000 | 10 to 100 | < 10 | 100 to 1000 | < 10 | 100 to 1000 | 100 to 1000 |
| C=CC(=O)N1C[C@H]2CN(C(=O)N(C)[C@H](C(=O)N[C@H]3Cc4nc(cs4)-c4ccc5c(c4)c(c(-c4cccnc4[C@H](C)OC)n5CC)CC(C)(C)COC(=O)[C@@H]4CCCN(N4)C3=O)C(C)C)[C@H]2C1 (atropisomer, axis not shown) [Example A686] | 100 to 1000 | 10 to 100 | 100 to 1000 | 10 to 100 | 10 to 100 | 100 to 1000 | 10 to 100 | 100 to 1000 | 100 to 1000 |
| C=CC(=O)N1CC[C@H]2[C@@H](C1)CN2C(=O)N(C)[C@H](C(=O)N[C@H]1Cc2nc(cs2)-c2ccc3c(c2)c(c(-c2cccnc2[C@H](C)OC)n3CC)CC(C)(C)COC(=O)[C@@H]2CCCN(N2)C1=O)C(C)C (atropisomer, axis not shown) [Example A687] | 100 to 1000 | 10 to 100 | 100 to 1000 | 10 to 100 | 100 to 1000 | 100 to 1000 | 100 to 1000 | 100 to 1000 | 100 to 1000 |
| CCn1c(-c2cccnc2[C@H](C)OC)c2c3cc(ccc31)-c1csc(n1)C[C@H](NC(=O)C[C@@H]1COC3(CN(C(=O)C#CC(C)(C)N(C)C)C3)O1)C(=O)N1CCC[C@H](N1)C(=O)OCC(C)(C)C2 (atropisomer, axis not shown) [Example A691] | 1000 to 10000 | 1000 to 10000 | 1000 to 10000 | 1000 to 10000 | < 10 | 1000 to 10000 | < 10 | 1000 to 10000 | 1000 to 10000 |
